A short description of data set [1]: Toxicity against barnacle larvae (LC50). To be noted: Balanus amphitrite (barnacle), in vivo; concentration required to kill 50% of larvae of a tested population. On the procedure:
(§1) All compounds were tested for their cytotoxicity against a panel of tumor cell lines including human ovarian carcinoma A2780, human lung adenocarcinoma A549, human gastric carcinoma BGC823, human hepatoma Bel7402, and human colonic carcinoma HCT-8. […] In order to detect whether these compounds play a role for ecological functions, the test for antifouling activity against the larvae of the barnacle Balanus amphitrite was performed. […] A primary discussion of structure-activity relationship implied that α,β-unsaturated 2,3-dimethyl-γ-lactone is a functional unit for anti-barnacle.
(§2) Adults of the barnacle Balanus amphitrite Darwin were exposed to air for more than 6 h, and then were placed in a container filled with fresh 0.22 µm filtered sea water (FSW) to release nauplii. The collected nauplii were reared to cyprid stage according to the method described by Thiyagarajan et al.. When kept at 26–28 °C and fed with Chaetoceros gracilis, larvae developed to cyprids within four days. Fresh cyprids were used in the tests.

For data set [2], the system named is larvae of the barnacle Balanus amphitrite. In words: Larval settlement bioassay (antifouling activity). To be noted: for EC50: Amphibalanus amphitrite, read-out: Balanus amphitrite Larvae EC50. Format: in vivo. As for the experimental part: as §1, §2
Where [3] appears, read: concentration where 50% of larval population was inhibited to settle compared to control, cyprids.

From article PMC3397443, “Sinularones A–I, New Cyclopentenone and Butenolide Derivatives from a Marine Soft Coral Sinularia sp. and Their Antifouling Activity” (Marine Drugs, 2012) come the findings set out here.

Converted amounts (≈) assume the structure as drawn. Like-named read-outs stand apart in the source and are kept apart here.

As for `CC(=O)CC/C=C(/C)C[C@@H]1CC(C)(C)CC1=O` [Compound 1, Sinularone A], the LC50 in data set [1] is > 50 µg/mL. In addition, in data set [2] (setting [3]), the EC50 is 13.9 µg/mL (≈ 58.6 µM).
On to `CCCCC[C@@]1(O)C(C)=C(C)C(=O)[C@H]1CC(=O)OCC` [Compound 2, Sinularone B], for which the median lethal concentration (LC50) in data set [1] was > 50 µg/mL. In addition, the EC50 in data set [2] (setting [3]) came out at 23.5 µg/mL (≈ 83.2 µM).
Turning to `CCOC(=O)CC[C@]1(O)OC(=O)C(C)=C1C` [Compound 7, Sinularone G], the median lethal concentration (LC50) in data set [1] is > 50 µg/mL. In addition, the EC50 in data set [2] (setting [3]) was 18.6 µg/mL (≈ 81.7 µM).
The like results for `CCO[C@@]1(CCC(=O)OC)OC(=O)C(C)=C1C` [Compound 8, Sinularone H] were, in that order, > 50 µg/mL and 21.4 µg/mL (≈ 88.3 µM).
As to `CCOC(=O)CCCCCCCCCCCC[C@]1(O)OC(=O)C(C)=C1C` [Compound 9, Sinularone I], in data set [1], the LC50 is > 50 µg/mL. Further, in data set [2] (setting [3]), the concentration giving a half-maximal response (EC50) was determined as 12.6 µg/mL (≈ 34.1 µM).
For the molecule `CCCCC[C@]1(O)OC(=O)C(C)=C1C` [Compound 10, (S)-4-hydroxy-2,3-dimethyl-4-pentyl-γ-lactone], the median lethal concentration (LC50) in data set [1] is > 50 µg/mL. In data set [2], the EC50 was found to be 3.84 µg/mL (≈ 19.4 µM). Also, in data set [2] (against the barnacle Balanus amphitrite), the “antifouling activity (in words)” value is given as “the most active”.

The term LC50 denotes the concentration lethal to half of the exposed cells or organisms. A low value points to greater toxicity. Broadly, the EC50 is the midpoint of the concentration-response curve.
